Test results published in patent EP0063827A1, “1-Isopropyl- and 1-isobutyl-3,7-dimethyl xanthine as pharmaceutical preparations” (SOCIETE DES PRODUITS NESTLE S.A., priority 1980, dated 1980).

Assays:
[1] = test system: anxiété induite par un nouvel environnement; assay: Behavioural study in rats: locomotion and rearing counts under anxiety induced by a new environment; assay type: in vivo, rat; settings: for profil d'action: conclusion in words from the behavioural study in the rat; for d/r: ratio of slope of déplacements to slope of redressements, specificity of effect on anxiety
Description: La 1-isopropyl- et la l-isobutyl-3,7-diméthylxan- thine ont fait l'objet d'une étude comportementale chez le rat en fonction de l'anxiété induite par un nouvel environnement. Chez le rat, l'anxiété se manifeste par des redressements de celui-ci sur ses deux pattes postérieures, tandis que ses déplacements sont l'expression de l'activité locomotrice.
• - L'induction d'un état d'anxiété s'effectue par confrontation de rats mâles "naïfs" Sprague-Dawley (Iffa-Credo, France), pesant 260 à 300 g avec un nouvel environnement constitué par des cages en Macrolon ^0 (30 x 25 cm) qui se situent dans une chambre insonorisée et climatisée (22°C et 50 % d'humidité relative). • - La détermination du nombre de redressements et de déplacements a lieu de façon automatique à partir de cellules photo-électriques à infrarouge qui n'émettent des impulsions électriques que pour les mouvements francs de l'animal et pas pour les mouvements statiques comme ceux de la tête et de la queue et ceci pour des raisons de reproductibilité. Ces cellules photo-électriques quadrillent les cages à deux niveaux différents de façon à distinguer les redressements des déplacements. Le nombre de redressements et de déplacements est compté par les deux séries de cellules photo-électriques, mémorisé et restitué sur une imprimante selon un programme préétabli. • - On administre oralement par intubation oesophagienne le composé testé en solution, l'administration de référence étant constituée par 6 ml/kg d'eau distillée, et ceci 30 minutes avant de placer les animaux dans les cages. Le nombre de redressements et de déplacements est déterminé durant les 15 minutes qui suivent la mise en cage, par rapport à l'effet engendré par l'administration de référence.
• - Le tableau I ci-après montre l'évolution des effets des substances testées sur le nombre de déplacements et de redressements en fonction des doses administrées exprimé en pourcentage des déplacements et redressements comptés pour l'administration de référence. [formula] • - A partir des données précédentes, on établit les droites de régression pour les déplacements et les redressements selon la méthode décrite par Saubrié, P.J. Pharmacol, (Paris) 2 (1971) 457-472, l'équation de ces droites de régression correspondant à la moyenne exprimée en % des performances des références en fonction produit par 10 du logarithme des doses (on ne considère que les doses ne diminuant pas l'activité motrice de plus de 75 %). • - La comparaison des pentes des droites de régression correspondant aux déplacements et aux redressements est effectuée en portant sur un système d'axes orthonormés en abscisse (d) la valeur de la pente de la droite des déplacements et en ordonnée (r) celle de la pente des redressements. Ces valeurs mettent en évidence la relation effet-dose pour une substance donnée. • - On détermine également le rapport de la pente des déplacements sur celle des redressements qui permet de juger de la spécificité d'effet d'une substance donnée sur l'anxiété.
La détermination de l'effet d'une substance est donnée par sa localisation par rapport à la droite d = r de pente = 1. Les substances situées sur cette droite ont un effet semblable sur les redressements et les déplacements. Les substances pour lesquelles la valeur absolue de la pente des redressements est significativement supérieure à celle des déplacements ont une action spécifique sur l'anxiété.

[2] = test system: enflement de l'oreille chez la souris; assay: Delayed cutaneous hypersensitivity test (oxazolone), inhibition of ear swelling; assay type: in vivo; settings: for % d'inhibition de l'enflement d'oreille: dose 150 mg/kg de poids corporel, ear thickness 24 h after challenge, relative to control
Description: L'activité immunosuppressante a été comparée à celle du cyclophosphamide, médicament immunosuppressant connu, comme inhibiteur de l'enflement de l'oreille chez la souris en réponse à l'agression antigénique dans un test d'hypersensibilisation cutanée retard à la dose de 150 mg/kg.
Le test a été conduit par exemple comme décrit par G.L. Asherson et W. Ptak dans Immunology 15, 405 (1968). Des souris ont été immunisées par application cutanée abdominale de 0,1 ml d'une solution à 3 % d'oxazolone. 7 jours après la sensibilisation, les animaux ont été provoqués par peinture de la même solution sur la peau de l'oreille. On a administré simultanément soit le composé ci-dessus soit le cyclophosphamide à une partie des animaux, les animaux restants servant de contrôle. 24 heures après l'agression, on a mesuré l'épaisseur de l'oreille. L'activité immunosuppressante exprimée en % de l'inhibition de l'enflement de l'oreille par rapport au contrôle est indiquée ci-après : […]

| SMILES | profil d'action [1] | d/r [1] | % d'inhibition de l'enflement d'oreille [2] [%] | further results |
| --- | --- | --- | --- | --- |
| Cn1c(=O)c2[nH]cnc2n(C)c1=O [théophylline, reference compound] | psychostimulante et n'a pas d'effet sur l'anxiété | > 1 | – | – |
| CC(C)Cn1c(=O)c2c(ncn2C)n(C)c1=O [1-isobutyl-3,7-diméthylxanthine] | sédatif non spécifique | – | – | profil d'action ([1]; listed as l-isobutyl-3,7-diméthylxanthine): effet sédatif comparable à celui d'un neuroleptique type |
| CNC1=Nc2ccc(Cl)cc2C(c2ccccc2)=[N+]([O-])C1 [chlordiazépoxide, reference compound] | – | < 1 | – | – |
| CC(C)n1c(=O)c2c(ncn2C)n(C)c1=O [1-isopropyl-3,7-diméthylxanthine] | – | < 1 | – | – |
| Cn1cnc2c1c(=O)n(Cn1c(=O)c3c(ncn3C)n(C)c1=O)c(=O)n2C [di(3,7-diméthylxanthin-1-yl)méthane] | – | – | 55 | activité immunosuppressante ([2]; result in words): a montré une activité immunosuppressante |
| O=P1(N(CCCl)CCCl)NCCCO1 (stereo not drawn) [cyclophosphamide, reference compound] | – | – | 73 | – |
